From US9993479B2, “Trk-inhibiting compound” (ONO PHARMACEUTICAL CO., LTD., priority 2013, dated 2018)

Tested on: sodium monoiodoacetate-induced model rats
Assay: Analgesic effect on sodium monoiodoacetate-induced model rats
Assay type: in vivo, rat
Details: MIA-induced model rats
[1] = test substance 0.1, 0.3 or 1 mg/kg orally twice a day day 14-23 and 3 h before measurement on day 24, Table 8 (positive control morphine)
[2] = test substance 0.1, 0.3 or 1 mg/kg orally twice a day day 14-23 and 3 h before measurement on day 24, Table 7 (positive control tramadol)

SMILES | Percent improvement (%) [1] [%] | Percent improvement (%) [2] [%] | also measured
Cc1cccc(-c2ccc(C(F)(F)F)cc2NC(=O)Nc2cnc(Oc3ccc(-c4cnn5ccc(N(C)C)nc45)cc3)nc2)c1 [Example 21-73, 1-(2-{4-[5-(dimethylamino)pyrazolo[1,5-a]pyrimidin-3-yl]phenoxy}-5-pyrimidinyl)-3-[3′-methyl-4-(trifluoromethyl)-2-biphenylyl]urea] | 62 |  | 
Cc1cn(-c2ccc(C(F)(F)F)cc2NC(=O)Nc2cnc(Oc3ccc(-c4cc(Cl)cnc4N)cc3)nc2)nn1 [Example 8-1, 1-(2-(4-(2-amino-5-chloropyridin-3-yl)phenoxy)pyrimidin-5-yl)-3-(2-(4-methyl-1H-1,2,3-triazol-1-yl)-5-(trifluoromethyl)phenyl)urea] |  | 60 | 
Nc1ncc(Cl)cc1-c1ccc(Oc2ncc(NC(=O)Nc3cc(C(F)(F)F)ccc3-c3ccccc3)cn2)cc1 [Example 15-55, 1-{2-[4-(2-amino-5-chloro-3-pyridinyl)phenoxy]-5-pyrimidinyl}-3-[4-(trifluoromethyl)-2-biphenylyl]urea] | 62 |  | 
CN(C)c1ccn2ncc(-c3ccc(Oc4ncc(NC(=O)Nc5cc(C(F)(F)F)ccc5-c5ccccc5)cn4)cc3)c2n1 [Example 21-70, 1-(2-{4-[5-(dimethylamino)pyrazolo[1,5-a]pyrimidin-3-yl]phenoxy}-5-pyrimidinyl)-3-[4-(trifluoromethyl)-2-biphenylyl]urea] | 61 |  | 
COc1cccc(C2(O)CCCCC2CN(C)C)c1 (stereo not shown) [Tramadol, tramadol, reference compound] |  |  | Percent improvement (%) (tramadol 10 mg/kg subcutaneously 1 hour before measurement on day 24, Table 7): 43%
Nc1ncc(Cl)cc1-c1ccc(Oc2ncc(NC(=O)Nc3ccc(C(F)(F)F)cc3Cl)cn2)cc1 [Example 15-6, 1-(2-(4-(2-amino-5-chloropyridin-3-yl)phenoxy)pyrimidin-5-yl)-3-(2-chloro-4-(trifluoromethyl)phenyl)urea] |  | 51 | 
Nc1ncc(F)cc1-c1ccc(Oc2ncc(NC(=O)Nc3cc(C(F)(F)F)ccc3-c3cccnc3)cn2)cc1 [Example 14-6, 1-(2-(4-(2-amino-5-fluoropyridin-3-yl)phenoxy)pyrimidin-5-yl)-3-(2-(pyridin-3-yl)-5-(trifluoromethyl)phenyl)urea] | 53 |  | 
Nc1ncc(Cl)cc1-c1ccc(Oc2ncc(NC(=O)Nc3cc(C(F)(F)F)ccc3-n3cc(Cl)cn3)cn2)cc1 [Example 15-63, 1-{2-[4-(2-amino-5-chloro-3-pyridinyl)phenoxy]-5-pyrimidinyl}-3-[2-(4-chloro-1H-pyrazol-1-yl)-5-(trifluoromethyl)phenyl]urea] | 53 |  | 
CS(=O)(=O)c1ccc(C(F)(F)F)cc1NC(=O)Nc1cnc(Oc2ccc(-c3cc(Cl)cnc3N)cc2)nc1 [Example 15-104, 1-{2-[4-(2-amino-5-chloro-3-pyridinyl)phenoxy]-5-pyrimidinyl}-3-[2-(methylsulfonyl)-5-(trifluoromethyl)phenyl]urea] | 54 |  | 
Nc1ncc(Cl)cc1-c1ccc(Oc2ncc(NC(=O)Nc3ccc(C(F)(F)F)cc3C(F)(F)F)cn2)cc1 [Example 15-77, 1-{2-[4-(2-amino-5-chloro-3-pyridinyl)phenoxy]-5-pyrimidinyl}-3-[2,4-bis(trifluoromethyl)phenyl]urea] | 55 |  | 
CS(=O)(=O)c1ccc(C(F)(F)F)cc1NC(=O)Nc1cnc(Oc2ccc(-c3cc(C(F)(F)F)cnc3N)cc2)nc1 [Example 15-98, 1-(2-{4-[2-amino-5-(trifluoromethyl)-3-pyridinyl]phenoxy}-5-pyrimidinyl)-3-[2-(methylsulfonyl)-5-(trifluoromethyl)phenyl]urea] | 57 |  | 
CN(C)c1ccn2ncc(-c3ccc(Oc4ncc(NC(=O)Nc5cc(C(F)(F)F)ccc5-c5ccnn5C)cn4)cc3)c2n1 [Example 21-51, 1-(2-{4-[5-(dimethylamino)pyrazolo[1,5-a]pyrimidin-3-yl]phenoxy}-5-pyrimidinyl)-3-[2-(1-methyl-1H-pyrazol-5-yl)-5-(trifluoromethyl)phenyl]urea] | 68 |  | 
O=C(Nc1cnc(Oc2ccc(-c3cnn4cccnc34)cc2)nc1)Nc1cc(C(F)(F)F)ccc1-c1cccnc1 [Example 21-13, 1-(2-(4-(pyrazolo[1,5-a]pyrimidin-3-yl)phenoxy)pyrimidin-5-yl)-3-(2-(pyridin-3-yl)-5-(trifluoromethyl)phenyl)urea] |  | 66 | 
CN(C)c1ccn2ncc(-c3ccc(Oc4ncc(NC(=O)Nc5cc(C(F)(F)F)ccc5-c5cccnc5)cn4)cc3)c2n1 [Example 21-37, 1-(2-{4-[5-(dimethylamino)pyrazolo[1,5-a]pyrimidin-3-yl]phenoxy}-5-pyrimidinyl)-3-[2-(3-pyridinyl)-5-(trifluoromethyl)phenyl]urea] | 67 |  | 
Nc1ncc(Cl)cc1-c1ccc(Oc2ncc(NC(=O)Nc3cc(C(F)(F)F)ccc3-n3cccn3)cn2)cc1 [Example 7, 1-(2-(1H-pyrazol-1-yl)-5-(trifluoromethyl)phenyl)-3-(2-(4-(2-amino-5-chloropyridin-3-yl)phenoxy)pyrimidin-5-yl)urea] |  | 61 | 
COc1ccn2ncc(-c3ccc(Oc4ncc(NC(=O)Nc5cc(C(F)(F)F)ccc5-c5cccnc5)cn4)cc3)c2n1 [Example 21-9, 1-(2-(4-(5-methoxypyrazolo[1,5-a]pyrimidin-3-yl)phenoxy)pyrimidin-5-yl)-3-(2-(pyridin-3-yl)-5-(trifluoromethyl)phenyl)urea] |  | 64 | 
Nc1ncc(F)cc1-c1ccc(Oc2ncc(NC(=O)Nc3cc(C(F)(F)F)ccc3-n3ccnn3)cn2)cc1 [Example 14-5, 1-(2-(1H-1,2,3-triazol-1-yl)-5-(trifluoromethyl)phenyl)-3-(2-(4-(2-amino-5-fluoropyridin-3-yl)phenoxy)pyrimidin-5-yl)urea] |  | 47 | 
Nc1ncc(C(F)(F)F)cc1-c1ccc(Oc2ncc(NC(=O)Nc3cc(C(F)(F)F)ccc3-n3ccc(C(F)(F)F)n3)cn2)cc1 [Example 15-52, 1-(2-{4-[2-amino-5-(trifluoromethyl)-3-pyridinyl]phenoxy}-5-pyrimidinyl)-3-{5-(trifluoromethyl)-2-[3-(trifluoromethyl)-1H-pyrazol-1-yl]phenyl}urea] | 60 |  | 
Nc1ncc(C(F)(F)F)cc1-c1ccc(Oc2ncc(NC(=O)Nc3cc(C(F)(F)F)ccc3-n3cc(Cl)cn3)cn2)cc1 [Example 15-87, 1-(2-{4-[2-amino-5-(trifluoromethyl)-3-pyridinyl]phenoxy}-5-pyrimidinyl)-3-[2-(4-chloro-1H-pyrazol-1-yl)-5-(trifluoromethyl)phenyl]urea] | 57 |  | 
